The text below walks through data of patent US20260356803A1, “Nicotinamide derivatives” (Board of Regents, The University of Texas System, priority 2024, published 2026).

SMILES strings stand for the structures. Like-named read-outs stand apart in the source and are kept apart here.

In assay [1] the test system is NMNAT1 or alcohol dehydrogenase. Briefly: Counter screen with NMN in place of NAM. Type of assay: biochemical. The conditions noted are these: role: inhibitor; 50 μM NMN substituted for NAM. On the procedure:
NAMPT activity was measured using a coupled-enzyme assay previously described [Revollo, 2014]. Briefly, reactions consisting of 50 mM Tris pH 8, 0.4 mM PRPP, 2.5 mM ATP, 12 mM MgCl2, 0.02% BSA, 1 μM NAMPT, 77 nM NMNAT1, 10 mM semicarbazide, 30 μg/ml alcohol dehydrogenase were set up in a 384-well plate (50 μl/well). […] The reactions were started by addition of 50 μM NAM. Fluorescence due to NADH formation by alcohol dehydrogenase was measured in a BioTek Cytation 5 plate reader (Agilent, USA) set up for excitation at λ=340 nm and detection of emission at λ=460 nm. To counter screen for NMNAT1 or alcohol dehydrogenase inhibition, the assay was set up above but substituting 50 μM NMN (substrate for NMNAT1) for NAM. No inhibition of was observed under these conditions.
For orientation: Counterscreens check selectivity or assay interference.

For a further assay, the system named is NAMPT and NMNAT1. Briefly: Cell-free metabolism by NAMPT and NMNAT1. The format is biochemical. To be noted: role: substrate, 200 μM compound, NMNAT1, 0.4 mM PRPP, 2.5 mM ATP, 37 °C. On the procedure:
We reasoned that 1 and 9 would likely be metabolized to 1-mononucleotide (1-MN) and 9-mononucleotide (9-MN) by NAMPT and then to 1-adenine dinucleotide (1-AD) and 9-adenine dinucleotide (9-AD) by NMNAT1. Thus, we analyzed extracts from cell-free reactions that co-incubate each compound with NAMPT, NMNAT1, PRPP, and ATP by high-resolution mass spectrometry to identify these putative metabolites based on exact mass. […] To test whether these compound metabolites were also produced in cells, we analyzed metabolic extracts from cells treated with either 1 or 9.
A reaction mixture containing 50 mM Tris pH 8, 0.4 mM PRPP, 2.5 mM ATP, 12 mM MgCl2, 0.02% BSA, 1 μM NAMPT, 100 nM NMNAT1 and 200 μM compound 9 or 1 was incubated at 37 °C. Fifty microliter aliquots were quenched at the indicated time points by adding two volumes of acetonitrile with 0.1% formic acid and vortexing for 15 seconds. After incubation for ten minutes at room temperature, samples were centrifuged at 13,200 rpm for 5 minutes. The supernatants were filtered through 0.2 μm PVDF filters (Sigma #SLGV004SL) and analyzed by LC-MS/TOF. […]
Data analysis for TOF data was performed using SCIEX MultiQuant software version 3.0.3. For each of the compounds monitored, the theoretical exact m/z was calculated. […]

Assay [2] concerns human MPNST cell line S462. The experiment in a line: S462 cell viability (CellTiter-Glo, 72 h). Type of assay: cell-based. The conditions noted are these: for IC50: read-out: IC50. From the text: This similarity, in addition to the scaffold's particular sensitivity to modifications around the pyridinyl ring led us to hypothesize that the activity of compounds 1 and 9 may depend on the concentration of Nam in the media. To test this hypothesis, we analyzed the activity of both compounds in media supplemented with increasing concentrations of Nam. […] Given that Nam inhibited compound activity, we considered Nam concentrations in basal culture conditions (DMEM supplemented with 10% fetal bovine serum or FBS) as compared to physiological levels. Nam levels in human serum are estimated to be in the 4 μM range.^5 In contrast, DMEM alone contains […] of Nam and the concentration in 10% FBS is expected to range between 0.574-1.56 μM.^6 To more closely reflect physiologic levels of Nam, we evaluated the activity of these compounds in cells grown in DMEM lacking Nam (Nam-free DMEM), so that the only exogenous Nam derives from 10% FBS. […] These observations indicate that the potency of these compounds is in the nanomolar range when tested in the presence of physiological levels of Nam.
We thus re-assessed the structure activity relationship of compound 21 analogs in Nam-free DMEM supplemented with or without 100 μM Nam (see appendix below: Synthesis, characterization and activity of micromolar and nanomolar active nicotinamide derivatives). […] Particularly notable, even in Nam-depleted conditions, all active analogs retained the same 3-pyridinyl ring as Nam, reinforcing the relationship between structural resemblance to Nam and compound efficacy.
In 96-well assay plates (Corning #2903), 2,000 cells were plated per well in 100 μL of medium and allowed to adhere overnight. The next day, compounds or Nam suspended in DMSO were dispensed to the assayed wells using a D300e Digital Dispenser (Tecan). All wells were normalized to 0.5% DMSO. 72 hours after incubation at 37 °C in 5% CO2, cell viability was assayed using an ATP-based luminescent viability assay, CellTiter-Glo (Promega #G8462). CellTiter-Glo substrate was mixed 1:1 with phosphate-buffered saline (PBS) supplemented with 1% Triton X-100, and 40 μL of this mixture was added to the assay wells. After the plates were shaken on a microplate shaker for 10 minutes at room temperature, luminescence was recorded using a Synergy 2 Microplate Reader or Cytation 5 plate reader (BioTek). In Prism 9 software (GraphPad), ten-point dose response curves were plotted with baseline-correction to the vehicle control well, and IC50 values were calculated by curve fitting using asymmetric (five parameter), least squares fit.
A general note: Cellular ATP, detected with luciferase, serves as a proxy for viable cell number.

Where [3] appears, read: Nam titration experiment, media without added Nam.
[4] abbreviates: S462, commercial DMEM, highest dose tested 50 μM.
Setting [5] is: addition of 100 μM exogenous Nam.

A word on the IC50: it is the concentration at which inhibition is half-maximal. Turning to `O=C(Nc1cccnc1)c1cccs1` [Compound 1, N-(pyridin-3-yl)thiophene-2-carboxamide], the “inhibition in counter screen” value in assay [1] was “No inhibition”. Further, the “levels of parent compound over time” value in the assay with NAMPT and NMNAT1 is recorded as “time-dependent decrease”. The IC50 is 1960 nM in assay [2] (setting [3]), 1410 nM in assay [2] (setting [4]), 6850 nM in assay [2] (setting [5]) and 32300 nM in assay [2] (addition of 1 mM exogenous Nam).
Take `O=C(Nc1cccs1)c1cccnc1` [Compound 9, N-(Thiophen-2-yl)nicotinamide]: the “inhibition in counter screen” value in assay [1] is on record as “No inhibition”. The “levels of parent compound over time” value in the assay on NAMPT and NMNAT1 is “time-dependent decrease”. In addition, in assay [2] (10% FBS Nam-free DMEM), the “toxicity to S462” value is “toxic to S462”. In addition, the rescue by nicotinamide result in assay [2] (10% FBS Nam-free DMEM, comparison of vacor, 3-AP, tiazofurin and 9) is listed as “rescued by nicotinamide”. Besides, the “IC50 of 9 less than 3-AP” value in assay [2] (10% FBS Nam-free DMEM, versus 3-AP) worked out at 1823 fold. Moreover, the “IC50 of 9 less than tiazofurin” value in assay [2] (10% FBS Nam-free DMEM, versus tiazofurin) is reported as 477 fold. In addition, the “IC50 of 9 less than vacor” value in assay [2] (10% FBS Nam-free DMEM, versus vacor) is 206 fold. For the same compound, the IC50 came out at 845 nM in assay [2] (setting [3]); 9.17 nM in assay [2] (Nam-free DMEM with 10% FBS); 51.4 nM in assay [2] (Nam-free DMEM, addition of 1.4 μM Nam); 1840 nM in assay [2] (Nam-free DMEM, addition of 37 μM Nam); 1200 nM in assay [2] (setting [4]); 4230 nM in assay [2] (setting [5]). Also, the IC50 in assay [2] (addition of 1 mM exogenous Nam) stood at 35700 nM. In assay [2] (Nam-free DMEM versus basal medium), the “potency increase in Nam-free DMEM” value turned out to be 92 fold. Moreover, the “average increase in IC50 on NMNAT1 knockout” value in assay [2] (S462, three independent NMNAT1 sgRNAs) is given as 28.5 fold.
